Data on two compounds can be found in patent US5948792A, “Fluorine-containing 1,4-disubstituted piperidine derivatives” (Banyu Pharmaceutical Co., Ltd., priority 1996, dated 1999).

One assay addresses T1, airway M3 receptor (Rattus norvegicus, UniProt P08483).
T1 construct: the trachea was isolated; from tissue; host or cells: isolated trachea of male SD strain rat
Put plainly: Antagonism to the airway M3 receptor in an isolated rat trachea (in vitro). It is filed as cell-based. The note with it: for Kb: isolated rat trachea, carbachol-induced contraction. How it is done: Tests for Antagonism to Muscarinic Receptors (in vitro)
2) Tests for Antagonism to the Airway M3 Receptor in an Isolated Rat Trachea
These tests were performed according to a conventional method. A male SD strain rat (weighing 300-500 g) was killed by exsanguination, and the trachea was isolated. Annular segments (2 mm wide) were cut out from the trachea and cut transversely at the anterior cartilage part to make open ring preparation. A preparation was suspended in a Magnus tube filled with 5 ml of Krebs-Henseleit solution (gassed with 95% O2 -5% CO2 and kept at 32° C.) with an initial tension of 1.0 g and a resting tension of 0.6 g. The tension of the preparation was recorded isometrically. After being equilibrated for an hour, the preparation was made to contract twice by treatment with 10^-4 M carbachol, and the second contraction induced by carbachol was used as the reference contraction. After the preparation was washed with fresh solution to be restored to the base line, a test compound was administered thereto (or no treatment was given). Ten minutes later, carbachol (10^-8 to 10^-3 M) was cumulatively administered in three-fold increasing doses to obtain a dose-response curve. The dose-response curve was plotted by expressing responses as percentages based on the reference contraction of the preparation as 100%. The antagonistic potency (K^B value) of the test compound was determined from the degree of shift of the dose-response curve obtained by treatment with the test compound.

A further assay concerns the target T2, Muscarinic M2 receptor (Homo sapiens, UniProt P08172).
T2 construct: purchased Receptor Biology, Inc; host or cells: CHO cells (membranes)
T2 sequence (P08172 1-466): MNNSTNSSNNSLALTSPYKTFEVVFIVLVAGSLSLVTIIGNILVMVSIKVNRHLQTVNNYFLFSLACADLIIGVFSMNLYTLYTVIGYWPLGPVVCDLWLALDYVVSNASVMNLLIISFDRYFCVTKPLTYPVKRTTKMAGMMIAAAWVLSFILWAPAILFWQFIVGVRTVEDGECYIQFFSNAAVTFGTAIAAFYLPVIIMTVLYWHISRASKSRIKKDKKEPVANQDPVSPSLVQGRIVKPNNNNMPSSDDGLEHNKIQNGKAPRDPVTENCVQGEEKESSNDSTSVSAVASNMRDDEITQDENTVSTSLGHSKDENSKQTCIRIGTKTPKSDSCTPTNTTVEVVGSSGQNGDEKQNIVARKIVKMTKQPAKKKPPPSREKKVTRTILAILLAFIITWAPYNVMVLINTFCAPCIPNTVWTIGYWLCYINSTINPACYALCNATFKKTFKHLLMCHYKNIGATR
Put plainly: Inhibition of binding of [3H]-N-methylscopolamine to muscarinic M2 receptor. The following applies: CHO cell membranes expressing cloned human receptor; 0.2 nM [3H]-N-methylscopolamine, pH 7.4, 2 hours, 25° C; read-out: Ki M2 (inhibitory effects on binding to muscarinic M2 receptor). How it is done: (§1) Tests on Inhibition of Binding to Muscarinic Receptors
(§2) These tests were performed according to a modification of the method of Hargreaves et al. (Br. J. Pharmacol. 107: 494-501, 1992). Membranes from CHO cells expressing cloned human m1-m5 (Receptor Biology, Inc.) were incubated with 0.2 nM [^3 H]-N-methylscopolamine and each a compound of the present invention to be tested in 0.5 ml of 50 mM Tris-HCl-10 mM MgCl2 -1 mM EDTA (pH 7.4) for 2 hours at 25° C. Free and membrane-bound [^3 H]-N-methylscopolamine were separated by filtration over glass filters (UniFilter-GF/C; Packard Instruments Co., Inc.) using cell harvester (Filtermate™ 196; Packard Instruments Co., Inc.). Then the filter was washed four times with 1 ml of ice-cold Tris-HCl (pH 7.4) and dried at 50° C. After adding a scintillator (Microscinti 0; Packard Instruments Co., Inc.), the radioactivity was counted by a liquid scintillation counter (TopCount™; Packard Instruments Co., Inc.). Non-specific binding was measured in the presence of 1 μM N-methylscopolamine.

A further assay concerns the target T3, Muscarinic M3 receptor (Homo sapiens, UniProt P20309).
T3 construct: purchased Receptor Biology, Inc; host or cells: CHO cells (membranes)
Put plainly: Inhibition of binding of [3H]-N-methylscopolamine to muscarinic M3 receptor. How it is done: as §1, §2

The structures appear in SMILES notation. pKi: −log10 of the molar value.

What is called Kb is the affinity of an antagonist, worked out from how it opposes an agonist. What is called pKi is the negative decadic logarithm of the Ki, by convention in mol/L.

T1 sequence (P08483 whole entry): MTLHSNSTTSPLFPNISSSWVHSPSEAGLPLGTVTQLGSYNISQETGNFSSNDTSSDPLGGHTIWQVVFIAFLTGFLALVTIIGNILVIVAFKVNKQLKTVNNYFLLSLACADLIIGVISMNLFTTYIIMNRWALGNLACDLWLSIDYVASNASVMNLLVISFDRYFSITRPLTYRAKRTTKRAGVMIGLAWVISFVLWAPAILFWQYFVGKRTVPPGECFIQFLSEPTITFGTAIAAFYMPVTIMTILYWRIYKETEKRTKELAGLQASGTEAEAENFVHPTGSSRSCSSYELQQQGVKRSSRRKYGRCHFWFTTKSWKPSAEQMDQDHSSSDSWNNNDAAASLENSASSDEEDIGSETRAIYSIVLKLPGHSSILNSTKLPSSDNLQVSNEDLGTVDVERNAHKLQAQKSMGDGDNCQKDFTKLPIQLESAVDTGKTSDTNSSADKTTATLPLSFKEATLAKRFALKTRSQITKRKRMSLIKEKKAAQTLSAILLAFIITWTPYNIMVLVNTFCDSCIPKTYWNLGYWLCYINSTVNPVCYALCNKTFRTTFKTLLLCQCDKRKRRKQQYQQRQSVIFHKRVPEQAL
T3 sequence (P20309 whole entry): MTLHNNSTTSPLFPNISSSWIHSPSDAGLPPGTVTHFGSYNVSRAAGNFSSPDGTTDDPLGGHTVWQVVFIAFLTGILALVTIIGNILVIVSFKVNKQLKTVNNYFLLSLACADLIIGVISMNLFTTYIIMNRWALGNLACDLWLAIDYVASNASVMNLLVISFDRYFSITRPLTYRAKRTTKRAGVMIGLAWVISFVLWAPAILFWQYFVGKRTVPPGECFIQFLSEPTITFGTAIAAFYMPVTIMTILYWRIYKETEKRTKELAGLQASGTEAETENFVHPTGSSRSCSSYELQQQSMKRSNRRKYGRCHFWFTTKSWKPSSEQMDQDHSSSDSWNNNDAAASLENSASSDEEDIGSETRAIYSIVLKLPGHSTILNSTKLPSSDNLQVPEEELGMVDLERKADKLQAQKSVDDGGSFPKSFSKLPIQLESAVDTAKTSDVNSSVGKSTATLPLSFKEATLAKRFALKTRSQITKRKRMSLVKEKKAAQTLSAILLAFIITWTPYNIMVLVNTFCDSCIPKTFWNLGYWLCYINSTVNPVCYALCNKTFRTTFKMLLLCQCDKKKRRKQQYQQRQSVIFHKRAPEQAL

`O=C(NC1CCN(Cc2ccsc2)CC1)[C@](O)(c1ccccc1)[C@@H]1CCC(F)(F)C1` [Example 11, (2R)-N-[1-(3-thienylmethyl)piperidin-4-yl]-2-[(1R)-3,3-difluorocyclopentyl]-2-hydroxy-2-phenylacetamide] returned a Kb on airway M3 receptor of 0.95 nM. For the same compound, the pKi at Muscarinic M2 receptor is 6.34.
The compound `Cl.Cl.Nc1cccc(CN2CCC(NC(=O)[C@](O)(c3ccccc3)[C@@H]3CCC(F)(F)C3)CC2)n1` [Example 20, (2R)-N-[1-(6-aminopyridin-2-ylmethyl)piperidin-4-yl]-2-[(1R)-3,3-difluorocyclopentyl]-2-hydroxy-2-phenylacetamide dihydrochloride] showed a Kb at airway M3 receptor of 1.6 nM. Besides, the “M2/M3 (ratio of KB)” value at airway M3 receptor (selectivity ratio of KB values, right atrium M2 / trachea M3) is given as 630. For the same compound, the pKi at Muscarinic M3 receptor (CHO cell membranes expressing cloned human receptor, 0.2 nM [3H]-N-methylscopolamine, pH 7.4, 2 hours, 25° C, read-out: Ki M3 (inhibitory effects on binding to muscarinic M3 receptor)) was 8.52; on Muscarinic M2 receptor, 6.26. The “M2/M3 (ratio of binding Ki)” value on Muscarinic M3 receptor (selectivity ratio of Ki values, binding) turned out to be 180.
